The subject of one test is PC-3. The test can be described thus: Antiproliferative activity against human PC-3 cells assessed as inhibition of cell growth incubated for 96 hrs by MTT based ELISA. In kind it is functional. The conditions noted are these: PC-3, 96 h. In general terms: ELISA stands for enzyme-linked immunosorbent assay.
Test [1] addresses DNA topoisomerase 2-alpha (Homo sapiens) (UniProt P11388). The test can be described thus: Inhibition of Topoisomerase 2 (unknown origin) using pBR322 DNA as substrate at 50 uM incubated for 15 mins by EtBr staining based agarose gel electrophoresis method.
The target is the same in test [2]. The test is described as follows: Inhibition of Topoisomerase 2 (unknown origin) using pBR322 DNA as substrate at 10 uM incubated for 15 mins by EtBr staining based agarose gel electrophoresis method.
For test [3], the target named is T1, DNA topoisomerase 1 (Homo sapiens) (UniProt P11387).
T1 sequence (whole entry): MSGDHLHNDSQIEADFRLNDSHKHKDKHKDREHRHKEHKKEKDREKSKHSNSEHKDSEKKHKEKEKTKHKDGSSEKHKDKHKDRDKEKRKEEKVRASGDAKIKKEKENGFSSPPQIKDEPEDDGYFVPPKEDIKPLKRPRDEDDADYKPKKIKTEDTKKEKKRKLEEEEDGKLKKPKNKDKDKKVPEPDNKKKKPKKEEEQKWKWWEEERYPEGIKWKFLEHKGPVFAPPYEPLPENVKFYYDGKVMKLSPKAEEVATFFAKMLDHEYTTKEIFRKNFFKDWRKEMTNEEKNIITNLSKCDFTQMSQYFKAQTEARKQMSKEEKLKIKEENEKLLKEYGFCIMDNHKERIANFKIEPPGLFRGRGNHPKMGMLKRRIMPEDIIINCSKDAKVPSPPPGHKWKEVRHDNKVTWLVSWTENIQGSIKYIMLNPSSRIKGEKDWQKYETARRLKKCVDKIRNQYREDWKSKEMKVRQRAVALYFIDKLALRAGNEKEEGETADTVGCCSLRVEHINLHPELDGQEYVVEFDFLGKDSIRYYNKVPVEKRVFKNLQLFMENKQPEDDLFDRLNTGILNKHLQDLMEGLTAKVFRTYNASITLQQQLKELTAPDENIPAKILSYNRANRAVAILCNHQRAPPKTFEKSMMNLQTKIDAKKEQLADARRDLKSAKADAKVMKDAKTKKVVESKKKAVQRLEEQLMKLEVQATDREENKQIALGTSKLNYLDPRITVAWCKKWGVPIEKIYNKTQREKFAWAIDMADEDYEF
The test is described as follows: Inhibition of Topoisomerase I (unknown origin) using pBR322 DNA as substrate at 10 uM incubated for 15 mins by EtBr staining based agarose gel electrophoresis method.

The test system of another test is Huh-7. The test can be described thus: Antiproliferative activity against human Huh-7 cells assessed as inhibition of cell growth incubated for 96 hrs by MTT based ELISA. In kind it is functional. The conditions noted are these: Huh-7, 96 h.
The test system of another test is MDA-MB-231. The test can be described thus: Antiproliferative activity against human MDA-MB-231 cells assessed as inhibition of cell growth incubated for 96 hrs by MTT based ELISA. The class given is functional. Conditions: MDA-MB-231, 96 h.
Test [4] has as its target T1, DNA topoisomerase 1 (Homo sapiens). The test is described as follows: Inhibition of Topoisomerase I (unknown origin) using pBR322 DNA as substrate at 50 uM incubated for 15 mins by EtBr staining based agarose gel electrophoresis method.
A further test deals with MCF7. The test is described as follows: Antiproliferative activity against human MCF7 cells assessed as inhibition of cell growth incubated for 96 hrs by MTT based ELISA. In kind it is functional. The conditions noted are these: MCF7, 96 h.
Test [5] deals with T1, DNA topoisomerase 1 (Homo sapiens). The test is described as follows: Inhibition of Topoisomerase I (unknown origin) using pBR322 DNA as substrate at 2 uM incubated for 15 mins by EtBr staining based agarose gel electrophoresis method.
Test [6] addresses DNA topoisomerase 2-alpha (Homo sapiens) (UniProt P11388). The test can be described thus: Inhibition of Topoisomerase 2 (unknown origin) using pBR322 DNA as substrate at 0.5 uM incubated for 15 mins by EtBr staining based agarose gel electrophoresis method.
Test [7] has the same target. The test is described as follows: Inhibition of Topoisomerase 2 (unknown origin) using pBR322 DNA as substrate at 100 uM incubated for 15 mins by EtBr staining based agarose gel electrophoresis method relative to control.
The test system of the next test is HCT-116. The test can be described thus: Antiproliferative activity against human HCT-116 cells assessed as inhibition of cell growth incubated for 96 hrs by MTT based ELISA. In kind it is functional. Conditions: HCT-116, 96 h.
Test [8] has as its target T1, DNA topoisomerase 1 (Homo sapiens). The test is described as follows: Inhibition of Topoisomerase I (unknown origin) using pBR322 DNA as substrate at 1 uM incubated for 15 mins by EtBr staining based agarose gel electrophoresis method.
The target is the same in test [9]. The test can be described thus: Inhibition of Topoisomerase I (unknown origin) using pBR322 DNA as substrate at 200 uM incubated for 15 mins by EtBr staining based agarose gel electrophoresis method relative to control.
Another test concerns NCI-H2228. The test is described as follows: Antiproliferative activity against human NCI-H2228 cells assessed as inhibition of cell growth incubated for 96 hrs by MTT based ELISA. In kind it is functional. Conditions: NCI-H2228, 96 h.
For test [10], the target named is T1, DNA topoisomerase 1 (Homo sapiens). The test can be described thus: Inhibition of Topoisomerase I (unknown origin) using pBR322 DNA as substrate at 5 uM incubated for 15 mins by EtBr staining based agarose gel electrophoresis method.

Active and inactive are the calls of the source. The rule behind the calls is not given here.

Chain of DNA topoisomerase 2-alpha (Homo sapiens) (P11388 whole entry): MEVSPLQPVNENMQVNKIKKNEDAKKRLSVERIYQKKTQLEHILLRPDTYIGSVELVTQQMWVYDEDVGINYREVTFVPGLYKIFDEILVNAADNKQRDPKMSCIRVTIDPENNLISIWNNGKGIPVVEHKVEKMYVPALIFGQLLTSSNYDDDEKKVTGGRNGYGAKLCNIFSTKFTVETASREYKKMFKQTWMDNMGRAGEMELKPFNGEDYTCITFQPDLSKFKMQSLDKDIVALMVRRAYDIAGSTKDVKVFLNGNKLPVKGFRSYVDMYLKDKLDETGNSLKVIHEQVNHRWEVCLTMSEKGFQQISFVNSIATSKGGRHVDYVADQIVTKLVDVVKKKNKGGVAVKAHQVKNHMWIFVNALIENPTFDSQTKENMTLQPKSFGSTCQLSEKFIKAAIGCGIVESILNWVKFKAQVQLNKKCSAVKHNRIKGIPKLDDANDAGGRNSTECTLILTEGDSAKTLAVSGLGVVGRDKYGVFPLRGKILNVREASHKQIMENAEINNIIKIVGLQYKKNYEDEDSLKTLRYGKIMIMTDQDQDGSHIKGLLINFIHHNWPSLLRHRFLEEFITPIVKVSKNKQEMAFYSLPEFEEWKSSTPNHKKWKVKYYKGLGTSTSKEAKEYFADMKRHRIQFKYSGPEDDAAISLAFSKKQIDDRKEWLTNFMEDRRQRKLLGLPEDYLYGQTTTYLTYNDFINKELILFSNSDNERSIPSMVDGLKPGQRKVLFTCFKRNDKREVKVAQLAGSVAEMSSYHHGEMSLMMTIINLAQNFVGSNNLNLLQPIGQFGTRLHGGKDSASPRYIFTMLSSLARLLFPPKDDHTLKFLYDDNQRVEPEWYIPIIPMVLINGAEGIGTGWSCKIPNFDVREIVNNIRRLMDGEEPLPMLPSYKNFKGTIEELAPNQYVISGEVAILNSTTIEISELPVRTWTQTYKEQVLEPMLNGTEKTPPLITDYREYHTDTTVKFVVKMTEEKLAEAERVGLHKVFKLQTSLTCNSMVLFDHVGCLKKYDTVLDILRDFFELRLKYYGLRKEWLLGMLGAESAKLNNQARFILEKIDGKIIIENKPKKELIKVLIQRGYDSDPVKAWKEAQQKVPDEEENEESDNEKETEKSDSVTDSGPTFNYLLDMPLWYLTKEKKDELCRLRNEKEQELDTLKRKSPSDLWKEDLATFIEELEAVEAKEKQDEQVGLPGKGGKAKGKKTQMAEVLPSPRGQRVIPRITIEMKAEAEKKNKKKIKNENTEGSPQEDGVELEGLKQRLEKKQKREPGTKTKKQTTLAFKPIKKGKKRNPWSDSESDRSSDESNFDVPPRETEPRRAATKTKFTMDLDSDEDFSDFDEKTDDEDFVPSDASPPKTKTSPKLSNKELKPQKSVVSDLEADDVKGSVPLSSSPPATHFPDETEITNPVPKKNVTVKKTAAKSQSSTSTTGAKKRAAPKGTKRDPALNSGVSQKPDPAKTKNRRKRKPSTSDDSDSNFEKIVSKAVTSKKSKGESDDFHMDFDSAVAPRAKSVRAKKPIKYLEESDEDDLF

As for `O=C(CCCn1c2cc3c(cc2c2nc(Cl)c4ccccc4c21)OCO3)NO`, the IC50 (in general, the concentration at which inhibition is half-maximal) is 2440 nM with PC-3; 4100 nM in the test with Huh-7; 1640 nM in the test on MDA-MB-231; 2860 nM with MCF7; 1870 nM with HCT-116; 3640 nM with NCI-H2228. Besides, the inhibition result in [1], in test [2], in test [3], in [4], in [5] and in test [6] was “Active” throughout. Also, the inhibition result in [8] and in test [10] was “Active” throughout. For the same compound, the inhibition in test [7] and in test [9] was > 95% in each case.

Take `O=C(CCCn1c2cc3c(cc2c2ncc4ccccc4c21)OCO3)NO`: the half-maximal inhibitory concentration (IC50) in the test with PC-3 came out at 1550 nM; in the test on Huh-7, 2890 nM; with MDA-MB-231 it was 950 nM; in the test on MCF7, 2320 nM; with HCT-116, 1320 nM; in the test with NCI-H2228 it was 3070 nM. The inhibition result in [1], in test [3] and in [4] was “Active” throughout. The inhibition in test [7] and in test [9] was > 95% in each case.

For the compound `CN(C)CCCn1c2cc3c(cc2c2nc(Cl)c4ccccc4c21)OCO3`, the IC50 is 470 nM with PC-3; 940 nM with Huh-7; 560 nM in the test on MDA-MB-231; 370 nM in the test on MCF7; 260 nM in the test on HCT-116; 960 nM in the test with NCI-H2228. For the same compound, the inhibition result in test [1], in test [3] and in test [4] was “Active” in each case. Besides, the inhibition in test [7] and in test [9] was > 95% in each case.

Regarding `COc1ccc2c(c1)c1ncc3ccccc3c1n2CCCN1CCN(C)CC1`, the IC50 in the test with PC-3 turned out to be 740 nM; in the test on Huh-7, 2240 nM; in the test on MDA-MB-231, 1680 nM; with MCF7, 1120 nM; in the test with HCT-116, 1170 nM; in the test on NCI-H2228, 1840 nM. The inhibition result in test [1], in [4], in test [7] and in test [9] was “inactive” throughout.

Consider `CN(C)CCCn1c2cc3c(cc2c2[nH]c(=O)c4ccccc4c21)OCO3`, for which the half-maximal inhibitory concentration (IC50) turned out to be 630 nM in the test on PC-3; 1240 nM with Huh-7; 480 nM with MDA-MB-231; 600 nM in the test with MCF7; 220 nM with HCT-116; 1160 nM with NCI-H2228. Besides, the inhibition entry in test [1], in test [3] and in test [4] was “Active” throughout. Besides, the inhibition in [7] and in [9] was > 95% throughout.

`COc1ccc2c(c1)c1ncc3ccccc3c1n2CCCN1CCN(C(C)C)CC1`: the half-inhibitory concentration (IC50) came to 1070 nM with PC-3; 2180 nM with Huh-7; 2040 nM with MDA-MB-231; 1450 nM in the test with MCF7; 1380 nM in the test on HCT-116; 2040 nM in the test with NCI-H2228. Moreover, the inhibition entry in test [1], in test [4], in test [7] and in test [9] was “inactive” each time.

As to `COc1ccc2c(c1)c1nc(Cl)c3ccccc3c1n2CCCC(=O)NO`, the concentration for half-maximal inhibition (IC50) turned out to be 1660 nM in the test with PC-3; 2980 nM with Huh-7; 980 nM in the test with MDA-MB-231; 1510 nM with MCF7; 740 nM in the test with HCT-116; 2390 nM in the test on NCI-H2228. The inhibition result in test [1], in test [3] and in test [4] was “Active” in each case. The inhibition in test [7] and in [9] was > 95% in each case.

Consider `O=C(CCCn1c2cc3c(cc2c2[nH]c(=O)c4ccccc4c21)OCO3)NO`, for which the IC50 with PC-3 is 7140 nM; in the test on Huh-7, > 10000 nM; in the test with MDA-MB-231 it was 4880 nM; in the test on MCF7, 6570 nM; in the test with HCT-116 it was 4080 nM; in the test with NCI-H2228 it was > 10000 nM. In addition, the inhibition entry in [1] and in test [4] was “Active” in each case. Besides, the inhibition in [7] and in test [9] was > 95% throughout.

(Values after ChEMBL document CHEMBL5576135, “Discovery of Indolo[3,2-c]isoquinoline Derivatives as Novel Top1/2 Dual Inhibitors with Orally Efficacious Antitumor Activity and Low Toxicity” (J Med Chem, 2024).)
